# Where two headings read alike, the source gives them in different places.
# Legend:
# CLK3 = CLK3 (Homo sapiens, UniProt P49761); assay: CLK3 kinase activity assay (Z-lyte, Ser/Thr 18 peptide)
# [1] = system: lung cancer (4 cell lines); assay: CellTiter-Glo Viability Assay, lung cancer; format: cell-based; details: Homo sapiens, inhibition of cancer cell proliferation
# [2] = system: pancreatic cancer (8 cell lines); assay: CellTiter-Glo Viability Assay, pancreatic cancer; format: cell-based; details: Homo sapiens, inhibition of cancer cell proliferation
# all 50 cell lines = assay: CellTiter-Glo Viability Assay, average across all cell lines; format: cell-based; details: Homo sapiens; across all 50 cell lines; read-out: average EC50 for inhibition of cancer cell proliferation
# In short: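 Cancer cell lines of several tumour types plated at 300-3,000 cells/well and exposed to compound in duplicate for four days at 37° C, 5% CO2, with DMSO-treated controls. Viability read by CellTiter-Glo luminescence (ATP content); EC50 derived from dose-response curves.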
# [3] = system: colorectal cancer (6 cell lines); assay: CellTiter-Glo Viability Assay, colorectal cancer; format: cell-based; details: Homo sapiens, inhibition of cancer cell proliferation
# [4] = system: liver cancer (3 cell lines); assay: CellTiter-Glo Viability Assay, liver cancer; format: cell-based; details: Homo sapiens, inhibition of cancer cell proliferation
# BT-549 = assay: CellTiter-Glo Viability Assay, breast cancer; format: cell-based; details: Homo sapiens, 96 h; BT-549, breast cancer, four days; read-out: EC50
# ZR-75-1 = assay: CellTiter-Glo Viability Assay, breast cancer; format: cell-based; details: Homo sapiens, 96 h; ZR-75-1, breast cancer, four days; read-out: EC50
# T47D = assay: CellTiter-Glo Viability Assay, breast cancer; format: cell-based; details: Homo sapiens, 96 h, breast cancer, four days, read-out: EC50
# DU4475 = assay: CellTiter-Glo Viability Assay, breast cancer; format: cell-based; details: Homo sapiens, DU-4475, 96 h; DU4475, breast cancer, four days; read-out: EC50
# MDA-MB-231-Luc = assay: CellTiter-Glo Viability Assay, breast cancer; format: cell-based; details: Homo sapiens, 96 h; MDA-MB-231-Luc, breast cancer, four days; read-out: EC50
# CAMA1 = assay: CellTiter-Glo Viability Assay, breast cancer; format: cell-based; details: Homo sapiens, CAMA-1, 96 h; CAMA1, breast cancer, four days; read-out: EC50
# HCC1599 = assay: CellTiter-Glo Viability Assay, breast cancer; format: cell-based; details: Homo sapiens, 96 h; HCC1599, breast cancer, four days; read-out: EC50
# MCF7 = assay: CellTiter-Glo Viability Assay, breast cancer; format: cell-based; details: Homo sapiens, 96 h; MCF7, breast cancer, four days; read-out: EC50
# [5] = system: prostate cancer (5 cell lines); assay: CellTiter-Glo Viability Assay, prostate cancer; format: cell-based; details: Homo sapiens
# CLK2 = biological target: T1, CLK2 (Homo sapiens, UniProt P49760); assay: CLK2 kinase activity assay (Z-lyte, Ser/Thr 6 peptide); format: biochemical; details: recombinant CLK2 kinase, ATP 60 μM; read-out: EC50
# T1 construct: purchased Thermo Fisher (Life Technologies), Z'-LYTE Kinase Assay Kits
# Protocol: All reactions were performed in duplicate.
# [6] = system: haematopoietic & lymphoid tumors (13 cell lines); assay: CellTiter-Glo Viability Assay, haematopoietic & lymphoid tumors; format: cell-based; details: Homo sapiens, inhibition of cancer cell proliferation
# [7] = system: ovarian cancer (4 cell lines); assay: CellTiter-Glo Viability Assay, ovarian cancer; format: cell-based; details: Homo sapiens, inhibition of cancer cell proliferation
# [8] = A-427, A427 cell line, read-out: Lung cancer, EC50 (μM) A427
# [9] = HCC78, HCC-78 cell line, read-out: Lung cancer, EC50 (μM) HCC-78
# [10] = NCI-H460 cell line, read-out: Lung cancer, EC50 (μM) NCI-H460
# [11] = NCI-H522 cell line, read-out: Lung cancer, EC50 (μM) NCI-H522
# [12] = BXPC-3, BxPC3 cell line, read-out: Pancreatic cancer, EC50 BxPC3
# [13] = CAPAN-1, Capan1 cell line, read-out: Pancreatic cancer, EC50 Capan1
# [14] = Capan-2, Capan2 cell line, read-out: Pancreatic cancer, EC50 Capan2
# [15] = MIA PaCa-2 cell line, read-out: Pancreatic cancer, EC50 MIA PaCa-2
# [16] = PANC 05.04 cell line, read-out: Pancreatic cancer, EC50 PANC 05.04
# [17] = PANC-1 cell line, read-out: Pancreatic cancer, EC50 PANC-1
# [18] = UPAFII cell line, read-out: Pancreatic cancer, EC50 UPAFII
# [19] = HCT-116, HCT116 cell line, read-out: Colorectal cancer, EC50 (μM) HCT116
# [20] = HT-29, HT29 cell line, read-out: Colorectal cancer, EC50 (μM) HT29
# [21] = SW-620, SW620 cell line, read-out: Colorectal cancer, EC50 (μM) SW620
# [22] = DLD-1 cell line, read-out: Colorectal cancer, EC50 (μM) DLD-1
# [23] = SW48 cell line, read-out: Colorectal cancer, EC50 (μM) SW48
# [24] = SNU-398, SNU398 cell line, read-out: Liver cancer, EC50 SNU398
# [25] = HEPG2 cell line, read-out: Liver cancer, EC50 HEPG2
# [26] = PLC/PRF/5 cell line, read-out: Liver cancer, EC50 PLC/PRF/5
# [27] = DU-145, read-out: Prostate cancer EC50 Du-145
# [28] = PC-3, PC3 cell line, inhibition of cancer cell proliferation, read-out: Prostate cancer EC50 PC3
# [29] = 22Rv1 cell line, inhibition of cancer cell proliferation, read-out: Prostate cancer EC50 22Rv1
# [30] = LNCap clone FGC cell line, inhibition of cancer cell proliferation, read-out: Prostate cancer EC50 LNCap clone FGC
# [31] = VCaP (Sigma) cell line, inhibition of cancer cell proliferation, read-out: Prostate cancer EC50 VCaP (Sigma)
# [32] = DND41, DND-41 cell line, read-out: Haematopoietic & Lymphoid tumors, EC50 (μM) DND-41
# [33] = MV4-11, MV-4-11 cell line, read-out: Haematopoietic & Lymphoid tumors, EC50 (μM) MV-4-11
# [34] = Rec1, REC-1 cell line, read-out: Haematopoietic & Lymphoid tumors, EC50 (μM) REC-1
# [35] = SU-DHL-4, SUDHL4 cell line, read-out: Haematopoietic & Lymphoid tumors, EC50 (μM) SUDHL4
# [36] = HL-60 cell line, read-out: Haematopoietic & Lymphoid tumors, EC50 (μM) HL-60
# [37] = JM1 cell line, read-out: Haematopoietic & Lymphoid tumors, EC50 (μM) JM1
# [38] = JURKAT, Clone E6-1 cell line, read-out: Haematopoietic & Lymphoid tumors, EC50 (μM) JURKAT, Clone E6-1
# [39] = JeKo-1 cell line, read-out: Haematopoietic & Lymphoid tumors, EC50 (μM) JeKo-1
# [40] = KASUMI-1 cell line, read-out: Haematopoietic & Lymphoid tumors, EC50 (μM) KASUMI-1
# [41] = Loucy cell line, read-out: Haematopoietic & Lymphoid tumors, EC50 (μM) Loucy
# [42] = MOLT-4 cell line, read-out: Haematopoietic & Lymphoid tumors, EC50 (μM) MOLT-4
# [43] = TF-1 cell line, read-out: Haematopoietic & Lymphoid tumors, EC50 (μM) TF-1
# [44] = TOLEDO cell line, read-out: Haematopoietic & Lymphoid tumors, EC50 (μM) TOLEDO
# [45] = PA-1, PA1 cell line, read-out: Ovarian cancer, EC50 (μM) PA1
# [46] = TOV112D, TOV-112D cell line, read-out: Ovarian cancer, EC50 (μM) TOV-112D
# [47] = OV-90 cell line, read-out: Ovarian cancer, EC50 (μM) OV-90
# [48] = OVCAR-3 cell line, read-out: Ovarian cancer, EC50 (μM) OVCAR-3
# T1 sequence (P49760 whole entry): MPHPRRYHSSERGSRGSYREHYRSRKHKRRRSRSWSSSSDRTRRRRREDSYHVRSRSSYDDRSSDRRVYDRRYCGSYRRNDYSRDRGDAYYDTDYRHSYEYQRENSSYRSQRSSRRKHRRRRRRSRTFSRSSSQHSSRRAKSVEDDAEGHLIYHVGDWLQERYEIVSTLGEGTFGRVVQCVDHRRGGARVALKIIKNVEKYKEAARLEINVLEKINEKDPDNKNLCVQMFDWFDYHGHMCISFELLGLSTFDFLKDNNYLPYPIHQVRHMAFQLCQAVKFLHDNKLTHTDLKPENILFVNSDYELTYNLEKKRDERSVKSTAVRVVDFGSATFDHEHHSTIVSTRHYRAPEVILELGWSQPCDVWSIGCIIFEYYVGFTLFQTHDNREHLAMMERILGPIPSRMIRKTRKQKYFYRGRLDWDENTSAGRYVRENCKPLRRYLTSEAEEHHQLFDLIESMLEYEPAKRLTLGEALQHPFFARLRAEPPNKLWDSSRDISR
# Sequence of CLK3 (P49761 whole entry): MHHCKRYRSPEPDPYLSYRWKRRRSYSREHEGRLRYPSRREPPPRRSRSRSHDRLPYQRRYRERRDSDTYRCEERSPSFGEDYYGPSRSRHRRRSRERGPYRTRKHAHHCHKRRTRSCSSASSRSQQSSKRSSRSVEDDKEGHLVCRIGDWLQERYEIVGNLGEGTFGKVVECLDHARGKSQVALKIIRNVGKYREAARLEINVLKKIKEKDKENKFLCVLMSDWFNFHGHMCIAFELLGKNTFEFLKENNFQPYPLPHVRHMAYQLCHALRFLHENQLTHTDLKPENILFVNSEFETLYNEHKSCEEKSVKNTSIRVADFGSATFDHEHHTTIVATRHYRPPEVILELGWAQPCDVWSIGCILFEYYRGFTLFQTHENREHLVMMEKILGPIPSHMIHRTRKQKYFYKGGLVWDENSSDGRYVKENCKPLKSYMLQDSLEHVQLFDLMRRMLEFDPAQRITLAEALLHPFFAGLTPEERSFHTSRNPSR
smiles,measurement,setting,value
CN(C)Cc1cncc(-c2ccc3[nH]nc(-c4cc5c(-c6ccoc6)ccnc5[nH]4)c3c2)c1 [Compound 51],EC50,CLK3,31 nM
same,EC50,[1]; [8],> 10 µM
same,EC50,[1]; [9],> 10 µM
same,EC50,[1]; [10],> 10 µM
same,EC50,[1]; [11],5.83 µM
same,EC50,[2]; [12],> 10000 nM
same,EC50,[2]; [13],> 10000 nM
same,EC50,[2]; [14],> 10000 nM
same,EC50,[2]; [15],3520 nM
same,EC50,[2]; [16],> 10000 nM
same,EC50,[2]; [17],> 10000 nM
same,EC50,[2]; [18],8920 nM
same,EC50,all 50 cell lines,6510 nM
same,EC50,[3]; [19],3.45 µM
same,EC50,[3]; [20],> 10 µM
same,EC50,[3]; [21],2.34 µM
same,EC50,[3]; [22],1.64 µM
same,EC50,[3]; [23],3.77 µM
same,EC50,[4]; [24],232 nM
same,EC50,[4]; [25],> 10000 nM
same,EC50,[4]; [26],> 10000 nM
same,EC50,BT-549,> 10000 nM
same,EC50,ZR-75-1,> 10000 nM
same,EC50,T47D,> 10000 nM
same,EC50,DU4475,7190 nM
same,EC50,MDA-MB-231-Luc,> 10000 nM
same,EC50,CAMA1,> 10000 nM
same,EC50,HCC1599,407 nM
same,EC50,MCF7,> 10000 nM
same,EC50,[5]; [27],> 10000 nM
same,EC50,[5]; [28],7870 nM
same,EC50,[5]; [29],859 nM
same,EC50,[5]; [30],> 10000 nM
same,EC50,[5]; [31],> 10000 nM
same,EC50,CLK2,1.4 nM
same,EC50,[6]; [32],0.853 µM
same,EC50,[6]; [33],0.406 µM
same,EC50,[6]; [34],0.527 µM
same,EC50,[6]; [35],0.501 µM
same,EC50,[6]; [36],9.46 µM
same,EC50,[6]; [37],0.195 µM
same,EC50,[6]; [38],2.79 µM
same,EC50,[6]; [39],0.713 µM
same,EC50,[6]; [40],5.07 µM
same,EC50,[6]; [41],1.28 µM
same,EC50,[6]; [42],7.26 µM
same,EC50,[6]; [43],7.92 µM
same,EC50,[6]; [44],0.302 µM
same,EC50,[7]; [45],8.98 µM
same,EC50,[7]; [46],> 10 µM
same,EC50,[7]; [47],> 10 µM
same,EC50,[7]; [48],3.22 µM
O=C(Nc1cncc(-c2ccc3[nH]nc(-c4cc5cnccc5[nH]4)c3c2)c1)C1CCCCC1 [Compound 47],EC50,CLK3,17.6 nM
same,EC50,[1]; [8],0.14 µM
same,EC50,[1]; [9],0.666 µM
same,EC50,[1]; [10],2.64 µM
same,EC50,[1]; [11],0.157 µM
same,EC50,[2]; [12],770 nM
same,EC50,[2]; [13],761 nM
same,EC50,[2]; [14],540 nM
same,EC50,[2]; [15],112 nM
same,EC50,[2]; [16],791 nM
same,EC50,[2]; [17],1780 nM
same,EC50,[2]; [18],357 nM
same,EC50,all 50 cell lines,516 nM
same,EC50,[3]; [19],0.402 µM
same,EC50,[3]; [20],1.43 µM
same,EC50,[3]; [21],0.164 µM
same,EC50,[3]; [22],0.658 µM
same,EC50,[3]; [23],0.164 µM
same,EC50,"[3]; SW480 cell line, read-out: Colorectal cancer, EC50 (μM) SW480",0.22 µM
same,EC50,[4]; [24],57 nM
same,EC50,[4]; [25],371 nM
same,EC50,[4]; [26],1820 nM
same,EC50,BT-549,409 nM
same,EC50,ZR-75-1,358 nM
same,EC50,T47D,468 nM
same,EC50,DU4475,77 nM
same,EC50,MDA-MB-231-Luc,407 nM
same,EC50,CAMA1,210 nM
same,EC50,HCC1599,75 nM
same,EC50,MCF7,1960 nM
same,EC50,[5]; [27],459 nM
same,EC50,[5]; [28],322 nM
same,EC50,[5]; [29],283 nM
same,EC50,[5]; [30],965 nM
same,EC50,[5]; [31],574 nM
same,EC50,CLK2,1.3 nM
same,EC50,[6]; [32],0.129 µM
same,EC50,[6]; [33],0.07 µM
same,EC50,[6]; [34],0.453 µM
same,EC50,[6]; [35],0.14 µM
same,EC50,[6]; [36],0.769 µM
same,EC50,[6]; [37],0.075 µM
same,EC50,[6]; [38],0.466 µM
same,EC50,[6]; [39],0.048 µM
same,EC50,[6]; [40],0.25 µM
same,EC50,[6]; [41],0.136 µM
same,EC50,[6]; [42],0.404 µM
same,EC50,[6]; [43],0.861 µM
same,EC50,[6]; [44],0.077 µM
same,EC50,[7]; [45],0.403 µM
same,EC50,[7]; [46],0.192 µM
same,EC50,[7]; [47],0.567 µM
same,EC50,[7]; [48],0.179 µM

# Reference: US20220062240A1, “METHODS OF TREATING CANCER USING A CLK INHIBITOR” (BioSplice Therapeutics, Inc., priority 2018, published 2022)
